The record followed here is BindingDB's records for doi:10.1021/bi1013479 (University of California Irvine, 2010).

Holding throughout (test): Inhibitory Assay
The target of experiment [1] is T1, Nitric oxide synthase, endothelial (Homo sapiens, UniProt P29474).
T1 sequence (P29474 whole entry): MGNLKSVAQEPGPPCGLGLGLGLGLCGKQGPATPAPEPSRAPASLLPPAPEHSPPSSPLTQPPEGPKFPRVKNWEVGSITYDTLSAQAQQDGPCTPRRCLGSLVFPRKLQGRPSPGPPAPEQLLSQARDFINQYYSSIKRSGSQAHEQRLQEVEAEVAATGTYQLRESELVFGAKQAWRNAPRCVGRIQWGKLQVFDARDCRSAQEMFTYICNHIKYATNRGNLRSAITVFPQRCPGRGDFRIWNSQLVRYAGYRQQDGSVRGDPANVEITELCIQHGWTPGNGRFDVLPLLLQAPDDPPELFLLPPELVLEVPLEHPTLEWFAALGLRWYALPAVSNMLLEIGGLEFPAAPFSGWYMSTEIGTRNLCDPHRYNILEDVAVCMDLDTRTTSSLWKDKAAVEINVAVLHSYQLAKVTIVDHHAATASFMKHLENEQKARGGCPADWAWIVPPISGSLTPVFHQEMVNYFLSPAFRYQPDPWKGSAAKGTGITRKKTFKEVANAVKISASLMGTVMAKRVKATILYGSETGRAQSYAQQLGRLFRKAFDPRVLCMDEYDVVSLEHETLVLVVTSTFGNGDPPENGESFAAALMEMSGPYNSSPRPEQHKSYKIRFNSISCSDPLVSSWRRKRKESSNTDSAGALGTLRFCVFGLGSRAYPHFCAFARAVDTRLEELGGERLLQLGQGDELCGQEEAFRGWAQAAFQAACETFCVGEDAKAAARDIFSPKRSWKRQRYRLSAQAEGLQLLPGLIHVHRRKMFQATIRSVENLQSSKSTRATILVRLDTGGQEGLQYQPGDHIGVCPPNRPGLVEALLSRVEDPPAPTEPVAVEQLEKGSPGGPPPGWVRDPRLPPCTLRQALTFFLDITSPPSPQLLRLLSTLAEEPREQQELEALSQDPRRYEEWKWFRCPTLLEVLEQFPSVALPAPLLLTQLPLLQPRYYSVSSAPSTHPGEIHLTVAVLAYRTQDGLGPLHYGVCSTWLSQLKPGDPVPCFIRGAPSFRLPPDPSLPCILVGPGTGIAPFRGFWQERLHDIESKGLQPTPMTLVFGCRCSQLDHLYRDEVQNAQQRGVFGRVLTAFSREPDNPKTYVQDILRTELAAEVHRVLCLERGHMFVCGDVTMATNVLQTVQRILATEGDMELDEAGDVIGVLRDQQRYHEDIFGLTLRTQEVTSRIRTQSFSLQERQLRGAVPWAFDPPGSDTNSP
The text has this: (§1) Inhibition assay using nitric oxide synthases.

Experiment [2] deals with Nitric oxide synthase, inducible (Homo sapiens, UniProt P35228).
Sequence of Nitric oxide synthase, inducible (P35228 whole entry): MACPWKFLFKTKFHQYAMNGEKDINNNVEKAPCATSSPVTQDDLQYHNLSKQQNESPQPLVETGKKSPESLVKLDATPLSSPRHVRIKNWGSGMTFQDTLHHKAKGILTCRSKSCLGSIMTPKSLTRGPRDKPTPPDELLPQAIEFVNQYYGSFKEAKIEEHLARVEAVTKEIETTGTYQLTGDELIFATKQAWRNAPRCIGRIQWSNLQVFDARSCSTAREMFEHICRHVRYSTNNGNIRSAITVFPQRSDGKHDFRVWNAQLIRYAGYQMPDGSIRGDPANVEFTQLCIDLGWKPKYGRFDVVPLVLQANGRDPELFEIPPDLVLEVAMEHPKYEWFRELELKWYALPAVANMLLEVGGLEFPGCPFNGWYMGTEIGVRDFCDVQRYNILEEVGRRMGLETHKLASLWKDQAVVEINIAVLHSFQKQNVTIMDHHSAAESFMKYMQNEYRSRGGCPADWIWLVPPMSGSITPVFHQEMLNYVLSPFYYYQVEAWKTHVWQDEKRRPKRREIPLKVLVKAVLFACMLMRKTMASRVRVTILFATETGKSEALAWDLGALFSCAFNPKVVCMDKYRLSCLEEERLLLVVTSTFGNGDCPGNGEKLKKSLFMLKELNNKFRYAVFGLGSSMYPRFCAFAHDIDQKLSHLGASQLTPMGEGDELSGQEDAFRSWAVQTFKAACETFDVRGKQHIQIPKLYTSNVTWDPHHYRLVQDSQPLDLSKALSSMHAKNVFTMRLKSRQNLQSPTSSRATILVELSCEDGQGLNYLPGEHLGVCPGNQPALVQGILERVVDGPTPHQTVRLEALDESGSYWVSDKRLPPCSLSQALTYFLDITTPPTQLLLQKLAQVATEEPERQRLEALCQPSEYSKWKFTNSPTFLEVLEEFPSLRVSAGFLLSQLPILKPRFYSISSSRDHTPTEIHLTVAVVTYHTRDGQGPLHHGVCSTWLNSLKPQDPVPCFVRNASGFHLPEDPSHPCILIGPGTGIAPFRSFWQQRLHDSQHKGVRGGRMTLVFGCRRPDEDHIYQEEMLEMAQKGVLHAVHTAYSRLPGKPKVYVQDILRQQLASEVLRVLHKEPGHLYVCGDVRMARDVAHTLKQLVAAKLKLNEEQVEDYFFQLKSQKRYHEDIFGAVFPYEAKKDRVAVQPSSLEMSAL
Source text: as §1

For experiment [3], the target named is Nitric oxide synthase, brain (Homo sapiens, UniProt P29475).
Sequence of Nitric oxide synthase, brain (P29475 whole entry): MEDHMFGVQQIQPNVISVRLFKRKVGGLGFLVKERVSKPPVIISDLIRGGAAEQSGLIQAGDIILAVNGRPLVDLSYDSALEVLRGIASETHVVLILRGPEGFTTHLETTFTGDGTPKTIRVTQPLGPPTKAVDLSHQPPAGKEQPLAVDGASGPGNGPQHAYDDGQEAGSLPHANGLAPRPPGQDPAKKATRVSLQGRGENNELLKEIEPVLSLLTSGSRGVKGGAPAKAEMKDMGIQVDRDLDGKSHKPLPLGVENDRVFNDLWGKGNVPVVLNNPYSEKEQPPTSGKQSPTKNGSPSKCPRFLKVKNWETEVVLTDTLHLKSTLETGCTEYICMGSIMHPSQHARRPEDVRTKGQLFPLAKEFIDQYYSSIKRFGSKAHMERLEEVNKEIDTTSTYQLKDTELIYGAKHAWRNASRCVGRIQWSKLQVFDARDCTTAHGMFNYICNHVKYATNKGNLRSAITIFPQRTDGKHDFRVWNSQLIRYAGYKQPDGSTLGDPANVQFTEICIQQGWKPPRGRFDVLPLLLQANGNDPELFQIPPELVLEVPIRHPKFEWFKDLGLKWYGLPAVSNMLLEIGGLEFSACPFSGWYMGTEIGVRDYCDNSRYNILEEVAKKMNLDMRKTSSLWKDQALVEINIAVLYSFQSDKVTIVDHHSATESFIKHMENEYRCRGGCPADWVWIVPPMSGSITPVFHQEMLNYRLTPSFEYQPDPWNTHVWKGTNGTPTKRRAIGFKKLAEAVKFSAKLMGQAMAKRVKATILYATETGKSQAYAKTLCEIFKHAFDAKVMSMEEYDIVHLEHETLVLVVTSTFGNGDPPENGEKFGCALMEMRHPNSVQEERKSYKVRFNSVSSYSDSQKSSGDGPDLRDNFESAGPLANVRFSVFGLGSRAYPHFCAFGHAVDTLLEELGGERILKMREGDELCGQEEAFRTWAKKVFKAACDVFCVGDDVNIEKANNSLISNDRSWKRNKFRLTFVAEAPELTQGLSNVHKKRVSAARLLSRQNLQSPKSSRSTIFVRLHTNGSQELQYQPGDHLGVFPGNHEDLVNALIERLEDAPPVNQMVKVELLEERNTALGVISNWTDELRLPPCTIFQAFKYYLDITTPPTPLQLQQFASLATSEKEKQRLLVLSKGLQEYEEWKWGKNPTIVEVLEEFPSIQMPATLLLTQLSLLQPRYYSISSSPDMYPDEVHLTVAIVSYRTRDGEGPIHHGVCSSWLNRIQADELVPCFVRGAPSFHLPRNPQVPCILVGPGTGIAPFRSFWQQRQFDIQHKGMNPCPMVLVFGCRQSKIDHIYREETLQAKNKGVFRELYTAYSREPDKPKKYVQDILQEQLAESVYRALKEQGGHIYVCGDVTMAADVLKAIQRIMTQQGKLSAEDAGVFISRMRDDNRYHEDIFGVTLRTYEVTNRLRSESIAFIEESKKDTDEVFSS
Source text: as §1

On to `Cc1cc(N)nc(CCc2cccc(CCc3cc(C)cc(N)n3)c2)c1` [NOS Inhibitor, 3h], for which the Ki (commonly the dissociation constant of the complex between target and ligand, obtained from inhibition or displacement) in experiment [1] was 4.2 µM; in experiment [2], 2.73 µM.

With `Cc1cc(N)nc(CCc2cccc(CCc3cc(C)nc(N)c3)n2)c1`, the Ki in experiment [3] was determined as 0.195 µM; in experiment [1], 20 µM; in experiment [2] it was 12.6 µM.

For `Cc1cc(N)nc(CCc2cc(N)cc(CCc3cc(C)cc(N)n3)c2)c1` [6,6'-[(5-aminobenzene-1,3-diyl)diethane-2,1-diyl]bis(4-methylpyridin-2-amine)], the Ki in experiment [3] worked out at 0.085 µM; in experiment [1], 4.95 µM; in experiment [2], 3.4 µM.

Take `Cc1cc(N)nc(CCc2cncc(CCc3cc(C)nc(N)c3)c2)c1` [6-(2-{5-[2-(2-amino-6-methylpyridin-4-yl)ethyl]pyridin-3-yl}ethyl)-4-methylpyridin-2-amine]: the Ki in experiment [3] is 0.103 µM; in experiment [1] it was 16.1 µM; in experiment [2], 1.91 µM.
